Measurements taken from patent US9408393B2, “Bismuth-thiols as antiseptics for agricultural, industrial and other uses” (Microbion Corporation, priority 2010, dated 2016).

Experiments:
[1] = system: Mycobacterium smegmatis; assay: Single-point BisEDT-antibiotic combination FICI; format: cell-based; conditions: Msmeg 817
[2] = system: Gram-negative pathogenic bacteria; assay: Checkerboard broth microdilution MIC and FICI; format: cell-based; conditions: for MIC (μg/mL) Alone: compound alone; for FICI, Fractional Inhibitory Concentration Index: in combination with Cefotaxime
Method: The effects of combinations of microparticulate Bis-EDT and four Bis-EDT analogs prepared as described above, and other agents against representative strains of several Gram-negative pathogenic bacteria were tested. A modification of a common laboratory method was used to determine synergism (FICI≦0.5), enhancement (0.5<FICI≦1.0), antagonism (FICI>4.0) and indifference (1.0<FICI≦4.0) used fractional inhibitory concentrations (FICs) and FIC indices (FICI) (Eliopoulos G and R Moellering. 1991. Antimicrobial combinations. In Antibiotics in Laboratory Medicine, Third Edition, edited by V Lorian. Williams and Wilkins, Baltimore, Md., pp. 432-492; Odds, 2003 J. Antimicrob. Chemother. 52(1):1). The checkerboard technique was used to determine FIC indices and was employed in this study.
Stock solutions of all test articles were prepared at 40× the final target concentration in the appropriate solvent. […] The final drug concentrations in the FIC assay plates were set to bracket the MIC value of each agent for each test organism, unless the strain was totally resistant to the test agent. […] The test organisms were originally received from clinical sources, or from the American Type Culture Collection. Upon receipt, the isolates were streaked onto Tryptic Soy Agar II (TSA). Colonies were harvested from these plates and a cell suspension was prepared in an appropriate broth growth medium containing cryoprotectant. Aliquots were then frozen at −80° C. The frozen seeds of the organisms to be tested in a given assay were thawed, streaked for isolation onto TSA plates, and incubated at 35° C. All organisms were tested in Mueller Hinton II Broth (Becton Dickinson, Lot No. 9044411). The broth was prepared at 1.05× normal weight/volume to offset the 5% volume of the drugs in the final test plates.
Minimal Inhibitory Concentration (MIC) values were previously determined using the broth microdilution method for aerobic bacteria (Clinical and Laboratory Standards Institute (CLSI). Methods for Dilution Antimicrobial Susceptibility Tests for Bacteria That Grow Aerobically; Approved Standard—Eighth Edition. CLSI document M07-A8 [ISBN 1-56238-689-1]. Clinical and Laboratory Standards Institute, 940 West Valley Road, Suite 1400, Wayne, Pa. 19087-1898 USA, 2009.).
FIC values were determined using a broth microdilution method previously described (Sweeney et al., 2003 Antimicrob. Agents Chemother. 47(6):1902-1906). To prepare the test plates, automated liquid handlers (Multidrop 384, Labsystems, Helsinki, Finland; Biomek 2000 and Multimek 96, Beckman Coulter, Fullerton Calif.) were used to conduct serial dilutions and liquid transfers.
The appropriate wells of standard 96-well microdilution plates (Falcon 3918) were filled with 150 μL of the appropriate solvent in columns 2-12 using the Multidrop 384. Three hundred microliters of each secondary test drug was added to each well in Column 1 of the plates. These plates were used to prepare the drug “mother plates” which provided the serial drug dilutions for the drug combination plates. The Biomek 2000 was used to transfer 150 μL of each secondary drug solution (40×) from the wells in Column 1 of the mother plate and to make eleven 2-fold serial dilutions. Mother plates of Bis-EDT (and analogs) were serial diluted top to bottom by hand, using a multichannel pipette. Two mother plates, one for each secondary drug and one for Bis-EDT (or analogs), were combined to form a “checkerboard” pattern by transfer of equal volumes (using a multi-channel pipette) to the drug combination plate. Row H and Column 12 each contained serial dilutions of one of the agents alone for determination of the MIC.
The “daughter plates” were loaded with 180 μL of test medium using the Multidrop 384. Then, the Multimek 96 was used to transfer 10 μL of drug solution from each well of the drug combination mother plate to each corresponding well of the daughter plate in a single step.

[3] = system: P. aeruginosa; assay: Checkerboard broth microdilution MIC and FICI; format: cell-based, Pseudomonas aeruginosa; conditions: for MIC (μg/mL) Alone: compound alone
[4] = system: S. aureus strains; assay: In vitro inhibition from PMMA cement bead vehicle; format: cell-based, Staphylococcus aureus; conditions: with and without Tobramicin and Vancomycin
[5] = system: S. aureus; assay: Contaminated open fracture, rat femur critical defect model; format: in vivo; conditions: BT gel 5 mg/ml, 1 ml in defect, with Cefazolin 5 mgKg^−1 s.c. twice daily 3 days, day 14
Description: Standard errors of the mean are shown as error bars. Animals euthanized early are not excluded from the analysis, however samples from one animal in group 2 have been excluded due to gross contamination.
The aim of this study was to determine whether BTs will reduce infection in a contaminated open fracture model either on their own or with antibiotics. The contaminated rat femur critical defect model is a well-accepted model and was used for the experiments described in this Example. This model offers a standardized model for comparing various possible treatments and their effects on reducing infection and/or improving healing.
Three formulations of microparticulate BTs were produced in a clinically useful hydrogel gel form as described herein.
Two treatment arms were used: in the first arm, BT was used singularly; in the second arm BT was used in conjunction with a systemic antibiotic (ABx).
Six hours after inoculation with S. aureus, the wound was debrided, irrigated with saline and 1 ml of BT gel inserted within the defect.
Six hours after inoculation with S. aureus, the wound was debrided, irrigated with saline and 1 ml of BT gel added inserted within the defect. The antibiotic used was Cefazolin at a dose equivalent to 5 mgKg^−1 delivered via sub-cutaneous injection twice daily for a total of 3-days following the injury. The first dose was administered immediately prior to debridement.
Six hours after inoculation with S. aureus, the wound was debrided and irrigated with saline. The control animals were also treated with Cefazolin as per the regime described above.
The procedure for the in vivo rat injury model was performed as described by Chen et al. (2002 J. Orthop. Res. 20:142; 2005 J. Orthop. Res. 23:816; 2006 J. Bone Joint Surg. Am. 88:1510; 2007 J. Orthop. Trauma 21:693). The rats were anesthetized and prepped for surgery. The anterolateral aspect of the femoral shaft was exposed through a 3-cm incision. The periosteum and attached muscle was stripped from the bone. A polyacetyl plate (27×4×4 mm) was placed on the anterolateral surface of the femur. The plates were predrilled to accept 0.9-mm diameter threaded Kirschner wires. The bases of these plates were formed to fit the contour of the femoral shaft. Pilot holes were drilled through both cortices of the femur using the plate as a template and threaded Kirschner wire was inserted through the plate and femur. The notches that were 6 mm apart on the plate served as a guide for bone removal. A small oscillating saw was used to create the defect while the tissue was cooled by continuous irrigation in an effort to prevent thermal damage.
Several groups of 10 animals each were inoculated with 1×10^5 CFU of S. aureus and treated with BT alone or in combination with antibiotics 6 hours post-inoculation as described above. The groups were as follows: Bis-EDT gel; MB-11 gel; MB-8-2 gel; Bis-EDT gel & Abx; MB-11 gel & Abx; MB-8-2 gel & Abx; Control (Abx alone).
Animals were euthanized 14 days after surgery and bone and hardware sent for microbiological analysis, the results of which are shown in FIG. 7.

[6] = P. aeruginosa 103, in combination with Cefepime
[7] = P. aeruginosa 103, in combination with Cefotaxime
[8] = P. aeruginosa 1381, in combination with Cefepime
[9] = P. aeruginosa 1384, in combination with Cefepime
[10] = P. aeruginosa 1474, in combination with Cefepime
[11] = P. aeruginosa 1479, in combination with Cefepime
[12] = P. aeruginosa 2566, in combination with Cefepime
[13] = P. aeruginosa 2568, in combination with Cefepime

Row | Molecule | FICI, single-point BisEDT-antibiotic combination [1] | MIC (μg/mL) Alone ([2]; K. pneumoniae 1346) [µg/mL] | FICI, Fractional Inhibitory Concentration Index ([2]; K. pneumoniae 1346) | MIC (μg/mL) Alone ([2]; K. pneumoniae 1355) [µg/mL] | FICI, Fractional Inhibitory Concentration Index ([2]; K. pneumoniae 1355) | MIC (μg/mL) Alone ([2]; K. pneumoniae 2238) [µg/mL] | FICI, Fractional Inhibitory Concentration Index ([2]; K. pneumoniae 2238) | MIC (μg/mL) Alone ([2]; K. pneumoniae 2541) [µg/mL] | FICI, Fractional Inhibitory Concentration Index ([2]; K. pneumoniae 2541) | MIC (μg/mL) Alone ([2]; K. pneumoniae 2546) [µg/mL] | MIC (μg/mL) Alone ([2]; K. pneumoniae 2549) [µg/mL] | FICI, Fractional Inhibitory Concentration Index ([2]; K. pneumoniae 2549) | MIC (μg/mL) Alone ([3]; P. aeruginosa 103) [µg/mL] | FICI, Fractional Inhibitory Concentration Index [3, 6] | FICI, Fractional Inhibitory Concentration Index [3, 7] | MIC (μg/mL) Alone ([3]; P. aeruginosa 1381) [µg/mL] | FICI, Fractional Inhibitory Concentration Index [3, 8] | MIC (μg/mL) Alone ([3]; P. aeruginosa 1384) [µg/mL] | FICI, Fractional Inhibitory Concentration Index [3, 9] | MIC (μg/mL) Alone ([3]; P. aeruginosa 1474) [µg/mL] | other results
1 | NNC(=O)c1ccncc1 [Isoniazid] | 0.88 |  |  |  |  |  |  |  |  |  |  |  |  |  |  |  |  |  |  |  | 
2 | Capreomycin | 0.75 |  |  |  |  |  |  |  |  |  |  |  |  |  |  |  |  |  |  |  | 
3 | bismuth pyrithione/butanedithiol [MB-8-2] |  | 0.5 | 1.37 | 0.5 | 1.37 | 0.5 | 1.37 | 1 | 1.12 | 1 | 1 | 1.12 | 2 | 1.11 | 1.11 | 2 | 1.23 | 2 | 0.80 | 2 | FICI, Fractional Inhibitory Concentration Index [3, 10]: 1.11; MIC (μg/mL) Alone ([3]; P. aeruginosa 1479): 2 µg/mL; FICI, Fractional Inhibitory Concentration Index [3, 11]: 1.23; MIC (μg/mL) Alone ([3]; P. aeruginosa 2566): 2 µg/mL; FICI, Fractional Inhibitory Concentration Index [3, 12]: 1.23; MIC (μg/mL) Alone ([3]; P. aeruginosa 2568): 2 µg/mL; FICI, Fractional Inhibitory Concentration Index [3, 13]: 0.98; Effect on S. aureus strains in vitro from PMMA cement beads [4]: inhibitory effects; S. aureus infection detected on hardware, effect on Cefazolin activity [5]: enhanced antibiotic activity; S. aureus infection of injured bone, effect on Cefazolin activity [5]: enhanced
4 | bismuth pyrithione/ethanedithiol [MB-11] |  | 0.5 | 1.37 | 0.5 | 1.87 | 0.5 | 1.37 | 0.5 | 0.73 | 0.5 | 0.5 | 1.37 | 1 | 0.12 | 1.12 | 1 | 1.12 | 1 | 1.12 | 0.5 | FICI, Fractional Inhibitory Concentration Index ([2]; K. pneumoniae 2546): 1.37; FICI, Fractional Inhibitory Concentration Index [3, 10]: 1.12; MIC (μg/mL) Alone ([3]; P. aeruginosa 1479): 0.5 µg/mL; FICI, Fractional Inhibitory Concentration Index [3, 11]: 0.87; MIC (μg/mL) Alone ([3]; P. aeruginosa 2566): 0.5 µg/mL; FICI, Fractional Inhibitory Concentration Index [3, 12]: 0.93; MIC (μg/mL) Alone ([3]; P. aeruginosa 2568): 0.5 µg/mL; FICI, Fractional Inhibitory Concentration Index [3, 13]: 0.87; Effect on S. aureus strains in vitro from PMMA cement beads [4]: inhibitory effects; S. aureus infection detected on hardware, effect on Cefazolin activity [5]: enhanced antibiotic activity; S. aureus infection of injured bone, effect on Cefazolin activity [5]: enhanced
